Laboratory results as given in patent publication US20240115545A1, “PHARMACEUTICAL COMPOSITION CONTAINING B-LAPACHONE AS ACTIVE INGREDIENT FOR PREVENTION OR TREATMENT OF CHOLESTATIC LIVER DISEASE” (CUROME BIOSCIENCES CO., LTD., priority 2020, published 2024).

What was measured:
[1] = system: Poly I:C-induced cholestatic liver disease animal models; assay: Blood AST, ALT, ALP in Poly I:C-induced primary biliary cirrhosis mice (Example 5); format: in vivo
Method: Of cholestatic liver diseases, primary biliary cirrhosis (PBC) may be introduced to a similar state by using a viral RNA mimic and the Toll-like receptor polyinosinic-polycytidylic acid (Poly I:C). After 8-week-old C57BL/6 male mice (Samtako, Korea) were divided into each group (=6), each experimental group excluding a normal group was intraperitoneally administered 5 mg/kg Poly I:C twice a week for 8 weeks. Thereafter, the mice were fed a diet with control (vehicle), β-lapachone 40 mg/kg, β-lapachone 80 mg/kg, and positive control ursodeoxycholic acid 100 mg/kg and obeticholic acid 30 mg/kg for 8 weeks. On the 16th week of treatment, the experiment was ended, and the mice were sacrificed and then the blood was collected from the heart.

[2] = system: LX-2 hepatic stellate cell line; assay: Fibronectin and α-SMA protein expression in TGF-β1-treated LX-2 hepatic stellate cells (immunoblotting); format: cell-based; details: LX-2 cells, 1 ng/ml TGF-β1 + 0.5 or 1 μM β-lapachone, 24 hours
Method: Considering that inflammation and fibrosis of bile ducts cause cirrhosis in cholestatic liver disease, experiments were performed on the LX-2 hepatic stellate cell line model by using the method of Takaaki Higashi et al. (2017). The LX-2 cell line was subcultured in DMEM containing 10% FBS, 2 mM glutamine, 100 U penicillin, and 0.1 mg/ml streptomycin. The LX-2 cell line was added into a 6-well plate at a density of 16×10^4 cells/well, and cultured in DMEM containing 1 ng/ml TGF-β1, 1 ng/ml TGF-β1+0.5 μM β-lapachone or 1 ng/ml TGF-β1+1 μM β-lapachone for 24 hours. Thereafter, the protein expression levels of the fibrosis-related genes fibronectin and α-SMA of the obtained cells were measured by protein immunoblotting according to a conventional method known in the art.

fibrosis-related genes = assay: mRNA levels of fibrosis-related genes in liver tissue (Example 3.2); format: in vivo, mice; details: β-lapachone with DDC in diet, 7 days; depending on the concentration
Method: (§1) After 8-week-old C57BL/6 male mice (Samtako, Korea) were divided into each group (=6), the mice were fed a diet with normal (vehicle), control (DDC), DDC+β-lapachone 20 mg/kg, DDC+β-lapachone 40 mg/kg, DDC+β-lapachone 80 mg/kg, DDC+β-lapachone 100 mg/kg, and positive control DDC+ursodeoxycholic acid 100 mg/kg, and DDC+obeticholic acid 30 mg/kg (total 7 days). After 7 days of treatment, the mice were sacrificed and then the blood was collected from the heart. Thereafter, the levels of alanine aminotransferase (ALT), aspartate aminotransferase (AST), alkaline phosphatase (ALP), and bilirubin, which are blood indexes, were analyzed, and shown in FIG. 4.
After the cholestatic liver disease mouse animal models in Example 3.1 were sacrificed and the liver tissue was harvested therefrom, the mRNA levels of fibrosis-related genes were measured by a method similar to the method in Example 2.3.
In the cholestatic liver disease mouse models, the bile ducts were damaged and fibrosis was induced, by DDC, and accordingly, the transcriptional levels of collagen type 1 alpha 1 (Co|1α1), transforming growth factor beta 1 (TGF-β1), and collagen type I alpha 2 (Co|1α2), which are important factors in the development of fibrosis, were investigated, and the results are shown in FIG. 5.

[3] = system: DSS-induced inflammatory bowel disease mice; assay: Colon length in DSS-induced inflammatory bowel disease mice (Example 6.2); format: in vivo; details: DSS + β-lapachone 80 mg/kg
Method: After 8-week-old C57BL/6 female mice (Samtako, Korea) were divided into each group (=10), each experimental group was fed a standard rodent diet supplemented with 3% (w/w) DSS in drinking water for the first 5 days to induce acute colitis and orally administered control (vehicle), β-lapachone 40 mg/kg, and β-lapachone 80 mg/kg for 14 days.
By the same method as in Example 6.1, experimental groups were divided into a DSS untreated group (Control), a DSS treated group, and a DSS+β-lapachone 80 mg/kg treated group, respectively, and treated. After the end of the experiment, the mice were sacrificed to remove the colon, and the accurate colon length was measured using a Vernier caliper, and is shown FIGS. 11A and 11B. In addition, the mRNA levels of genes of interleukin-1beta (IL-1β), interleukin-6 (IL-6), interleukin-18 (IL-18), interferon-γ (INF-γ), tumor necrosis factor-α (TNF-α), tumor necrosis factor-β (TNF-β), and monocyte chemoattractant protein-1 (MCP-1), which were inflammatory cytokine factors in the colon tissue, were analyzed by a real-time polymerase chain reaction through a conventional experiment procedure, and are shown in FIG. 12.

[4] = system: DDC-induced cholestatic liver disease mice; assay: Treatment effect on blood bilirubin and ALP in cholestatic liver disease-induced mice (Example 4); format: in vivo
Method: The treatment effect of β-lapachone in cholestatic liver disease-induced mouse animals were investigated. After 8-week-old C57BL/6 male mice (Samtako, Korea) were divided into each group (=6), each group excluding a control group was fed a diet containing 0.1% DDC for 3 days. Thereafter, the mice were fed a diet with DDC control (vehicle), DDC+β-lapachone 20 mg/kg, DDC+β-lapachone 40 mg/kg, DDC+β-lapachone 80 mg/kg, and positive control DDC+obeticholic acid 30 mg/kg for 4 days (total 7 days). After 7 days of feeding, the mice were sacrificed and then the blood was collected from the heart.

[5] = system: DDC-induced cholestatic liver disease mice; assay: Blood indexes (ALT, AST, ALP, bilirubin), DDC and β-lapachone given together for 7 days (Example 3.1); format: in vivo
Method: DDC-induced cholestatic liver disease mouse animal models were prepared according to the method of Elisa Pose et al. by using 8-week-old C57BL/6 male mice (Samtako, Korea). Briefly, cholestatic liver disease was induced by feeding a standard rodent diet supplemented with 0.1% (w/w) DDC for 7 or 14 days. The 12-hour light and dark cycle was maintained and animals were allowed to free access to water. The standard rodent diet included medium wheat, wheat, corn, and corn gluten flour, and soybean oil (14% protein). All animal related procedures were reviewed and approved by the Institutional Animal Care and Use Committee of Korea Research Institute of Bioscience and Biotechnology (KRIBB), KRIBB-AEC-20165).
To investigate the effect of β-lapachone (BL) on the occurrence of cholestatic liver disease, both […] and β-lapachone were administered to mice to characterize animal models.
as §1

[6] = β-lapachone 40, 80 mg/kg in diet for 8 weeks after 8 weeks Poly I:C
[7] = 0.1% DDC 3 days, then DDC + 20, 40, 80 mg/kg in diet for 4 days, depending on the concentration
[8] = 20, 40, 80, 100 mg/kg in diet with DDC, depending on the concentration

CC1(C)CCC2=C(O1)c1ccccc1C(=O)C2=O [β-lapachone]
effect on AST, ALT, ALP compared with comparative substances ([1]; vs ursodeoxycholic acid 100 mg/kg and obeticholic acid 30 mg/kg, 8 weeks): excellent effect compared with the comparative substances ursodeoxycholic acid (UDCA) and obeticholic acid (OCA)
ALP in the blood increased by Poly I:C [1, 6]: inhibited
ALT in the blood increased by Poly I:C [1, 6]: inhibited
AST in the blood increased by Poly I:C [1, 6]: inhibited
protein expression level of fibronectin increased by TGF-β1 [2]: reduced depending on the concentration
protein expression level of α-SMA increased by TGF-β1 [2]: reduced depending on the concentration
transcriptional level of Co|1α1 in liver (fibrosis-related genes): inhibited
transcriptional level of Co|1α2 in liver (fibrosis-related genes): inhibited
transcriptional level of TGF-β1 in liver (fibrosis-related genes): inhibited
colon length shortened by DSS [3]: recovered
ALP in the blood increased by DDC [4, 7]: inhibited
bilirubin in the blood increased by DDC [4, 7]: inhibited
effect on bilirubin and ALP compared with positive controls ([4]; treatment after 3 days DDC, positive control obeticholic acid 30 mg/kg): excellent effect compared with ursodeoxycholic acid (UDCA) and obeticholic acid (OCA)
ALP in the blood increased by DDC [5, 8]: inhibited
ALT in the blood increased by DDC [5, 8]: inhibited
AST in the blood increased by DDC [5, 8]: inhibited
bilirubin in the blood increased by DDC [5, 8]: inhibited
effect on blood indexes compared with positive controls ([5]; vs ursodeoxycholic acid 100 mg/kg and obeticholic acid 30 mg/kg): excellent effects compared with ursodeoxycholic acid (UDCA) and obeticholic acid (OCA)
